This assay has as its target T1, human 11β-HSD1 enzyme (Homo sapiens, UniProt P28845).
T1 construct: stably transfected with a construct containing the full-length gene coding for the human 11β-HSD1 enzyme; expressed in transfected cells; host or cells: HEK293 (HEK293/11β-HSD1 cells)
Put plainly: Cellular in vitro 11β-HSD1 enzyme inhibition assay (SPA, HEK293/11β-HSD1 cells). The assay is classed as cell-based. The protocol: Cellular In Vitro 11β-HSD1 Enzyme Inhibition Assay
Compounds were assessed by a Scintillation Proximity Assay (SPA) performed according to the following protocol:
HEK293 cells were stably transfected with a construct containing the full-length gene coding for the human 11β-HSD1 enzyme to create HEK293/11β-HSD1 cells. Cells were routinely cultured in DMEM containing 10% calf foetal serum, 1% glutamine, and 1% penicillin and streptomycin. Prior to assay, cells were plated at 2×10^4 cells/well in 96-well poly-D-Lys coated flat-bottomed microplates and incubated in 5% CO2, 95% O2 at 37° C. for 24 hours. The media in each well was removed immediately before assay.
Compounds to be tested were dissolved in DMSO at 10 mM and serially diluted into water containing 10% DMSO. Diluted compounds at a volume of 10 μL were added to wells of a 96-well V-bottomed microplate. […] This solution (100 μL/well) was transferred to the plate containing the cells. The plate was then incubated in 5% CO2, 95% O2 at 37° C. for 2 hours.
Following this incubation, 50 μL of the assay solution was transferred to each well of a 96-well scintillation microplate. A mixture consisting of anti-mouse YSi SPA beads, pre-mixed with anti-cortisol antibody in assay buffer (50 mM Tris.HCl, pH 7.0; 300 mM NaCl; 1 mM EDTA, 5% glycerol) was prepared and 50 μL added to each well of the scintillation microplate. An adhesive strip was applied to the microplate and the plate gently shaken for at least 2 hours at room temperature, and then spun briefly on a low speed centrifuge. The plate was read on a scintillation counter suitable for 96-well microplates. For the calculation of percentage inhibition, a series of wells were added to the plate that represented the assay maximum and the assay minimum: one set that contained substrate without cells (mimimum) and another set that contained substrate and cells without any compound (maximum).
The calculation of median inhibitory concentration (IC50) values for the compounds was performed using GraphPad Prism® software. Dose-response curves for each compound were plotted as fractional inhibition and data fitted to the four parameter logistic equation.

Where [1] appears, read: HEK293, more than 1000 nM (1.0 μM) and less than or equal to 30 μM.
The mark [2] stands for this setting: HEK293, less than or equal to 1000 nM (1 μM).

pIC50: −log10 of the molar value. Where a name gives a salt, the structure may show the parent alone.

T1 sequence (P28845 whole entry): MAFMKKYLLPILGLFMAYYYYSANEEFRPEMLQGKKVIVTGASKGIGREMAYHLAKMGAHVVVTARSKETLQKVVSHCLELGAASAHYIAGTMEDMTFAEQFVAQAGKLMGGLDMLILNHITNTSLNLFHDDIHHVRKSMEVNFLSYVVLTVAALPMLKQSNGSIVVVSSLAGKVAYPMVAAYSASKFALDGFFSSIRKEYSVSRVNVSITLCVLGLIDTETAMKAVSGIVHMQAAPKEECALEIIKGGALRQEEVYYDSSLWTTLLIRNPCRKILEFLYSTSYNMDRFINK

In general, pIC50 refers to the IC50 on a negative log10 scale, so that one unit is a factor of ten. Read a low pIC50 as a high IC50. The molecule `COCCCC(=O)N1CCC(c2cc(C(=O)N3CCCC4CCCCC43)cs2)CC1` (stereo not shown) [CC-085] showed a pIC50 under setting [1] of 4.52 to 6.00. Consider `O=C(c1csc(C2CCOCC2)c1)N1CCCC2(CCCCC2)C1` [CC-077], for which, under setting [2], the pIC50 is ≥ 6.00.

With `O=C(CCc1c[nH]cn1)N1CCC(c2cc(C(=O)N3CCCC4CCCCC43)cs2)CC1` (stereo not shown) [CC-151], the pIC50 under setting [2] is ≥ 6.00. Consider `CCc1cc(C(=O)N2CCC3CCCCC3C2)cs1` (stereo not shown) [AA-010], for which, under setting [1], the pIC50 was 4.52 to 6.00.

As for `O=C(CCc1ccncc1)N1CCC(c2cc(C(=O)N3CCCC4CCCCC43)cs2)CC1` (stereo not shown) [CC-149], under setting [2], the pIC50 is ≥ 6.00. As to `COCCCN1CCC(c2cc(C(=O)N3CCCC4CCCCC43)cs2)CC1` (stereo not shown) [CC-089], the pIC50 under setting [1] was 4.52 to 6.00. Regarding `CCc1cc(C(=O)N2CCCC(F)(F)CC2)cs1` [AA-020], the pIC50 under setting [1] is 4.52 to 6.00. In turn, `O=C(c1ccno1)N1CCC(c2cc(C(=O)N3CCCC4CCCCC43)cs2)CC1` (stereo not shown) [CC-052] showed a pIC50 under setting [1] of 4.52 to 6.00. `N#CCc1cc(C(=O)N2CCC[C@@H]3CCCC[C@@H]32)cs1` (relative stereo) [AA-022, cis-[4-(Octahydro-quinoline-1-carbonyl)-thiophen-2-yl]-acetonitrile]: under setting [2], the pIC50 was ≥ 6.00.

As to `CC1(C)CC2CC(C)(CN2C(=O)c2csc(C3CCNCC3)c2)C1` (stereo not shown) [CC-072], the pIC50 under setting [2] is ≥ 6.00. In the case of `O=C(c1csc(C2CCN(CCS(=O)(=O)N3CCCC3)CC2)c1)N1CCCC2CCCCC21` (stereo not shown) [CC-087], the pIC50 under setting [1] is 4.52 to 6.00. Under setting [1], `O=C(c1csc(COc2ccc(-n3ccnc3)cc2)c1)N1CCCCC1` [BB-003] gave a pIC50 of 4.52 to 6.00. On to `O=C(c1csc(CC(F)(F)F)c1)N1CCC[C@@H]2CCCC[C@@H]21` (relative stereo) [AA-012, cis-(Octahydro-quinolin-1-yl)-[5-(2,2,2-trifluoro-ethyl)-thiophen-3-yl]-methanone], for which the pIC50 under setting [2] was ≥ 6.00. In the case of `CC1(C)CCCCN(C(=O)c2csc(C3CCNCC3)c2)C1` [CC-024], the pIC50 under setting [1] was 4.52 to 6.00. Consider `O=C(c1cc(C2CCOCC2)sc1Cl)N1CCCC2CCCCC21` (stereo not shown) [CC-030], for which the pIC50 under setting [2] is ≥ 6.00. Take `O=C(c1csc(C2CCSCC2)c1)N1CCCC2CCCCC21` (stereo not shown) [CC-136]: the pIC50 under setting [2] was ≥ 6.00. `O=C(c1csc(C2CCNCC2)c1)N1CCCCC1c1ccc(F)cc1` (stereo not shown) [CC-112] had a pIC50 under setting [1] of 4.52 to 6.00.

Consider `CS(=O)(=O)NCCC(=O)N1CC=C(c2cc(C(=O)N3CCCC4CCCCC43)cs2)CC1` (stereo not shown) [CC-091], for which the pIC50 under setting [2] was ≥ 6.00. On to `N#CC1(c2cc(C(=O)N3CCC[C@@H]4CCCC[C@@H]43)cs2)CCOCC1` (relative stereo) [CC-127, cis-4-[4-(Octahydro-quinoline-1-carbonyl)-thiophen-2-yl]-tetrahydro-pyran-4-carbonitrile], for which, under setting [2], the pIC50 is ≥ 6.00. Same read-out and setting: the same measure for `CC1(C)CCCCN(C(=O)c2csc(C3CCOCC3)c2)C1` [CC-022]: ≥ 6.00. Under setting [1], `O=C(CO)N1CCC(c2cc(C(=O)N3CCCCC3c3ccccc3)cs2)CC1` (stereo not shown) [CC-102] showed a pIC50 of 4.52 to 6.00. Molecule `O=C(c1csc(C2CCN(CC(F)(F)F)CC2)c1)N1CCC[C@@H]2CCCC[C@@H]21` (relative stereo) [CC-172, cis-(Octahydro-quinolin-1-yl)-{5-[1-(2,2,2-trifluoro-ethyl)-piperidin-4-yl]-thiophen-3-yl}-methanone] showed a pIC50 under setting [1] of 4.52 to 6.00.

For `CC(C)S(=O)(=O)N1CCC(c2cc(C(=O)N3CCCC4CCCCC43)cs2)CC1` (stereo not shown) [CC-104], under setting [1], the pIC50 was 4.52 to 6.00. Turning to `O=C(c1csc(C2CCN(CC(O)CO)CC2)c1)N1CCCC2CCCCC21` (stereo not shown) [CC-153], the pIC50 under setting [1] is 4.52 to 6.00. Regarding `O=C(CCn1ccnc1)N1CCC(c2cc(C(=O)N3CCCC4CCCCC43)cs2)CC1` (stereo not shown) [CC-117], the pIC50 under setting [1] is 4.52 to 6.00.

On to `COCc1cc(C(=O)N2CC3(C)CC2CC(C)(C)C3)cs1` (stereo not shown) [BB-006], for which the pIC50 under setting [2] was ≥ 6.00. `CC1(C)CCCN(C(=O)c2csc(C3CCNCC3)c2)CC1` [CC-023, (4,4-dimethyl-azepan-1-yl)-(5-piperidin-4-yl-thiophen-3-yl)-methanone] gave a pIC50 under setting [1] of 4.52 to 6.00. Regarding `CS(=O)(=O)N1CCC(c2cc(C(=O)N3CCC[C@@H]4CCCC[C@@H]43)cs2)CC1` (relative stereo) [CC-065, cis-[5-(1-Methanesulfonyl-piperidin-4-yl)-thiophen-3-yl]-(octahydro-quinolin-1-yl)-methanone], under setting [2], the pIC50 is ≥ 6.00. Take `O=C(c1csc(C2CCNCC2)c1)N1CCN2CCC[C@H]2C1` [CC-041]: the pIC50 under setting [1] was 4.52 to 6.00.

For `NC(=O)N1CCC(c2cc(C(=O)N3CCC[C@@H]4CCCC[C@@H]43)cs2)CC1` (relative stereo) [CC-068, cis-4-[4-(Octahydro-quinoline-1-carbonyl)-thiophen-2-yl]-piperidine-1-carboxylic acid amide], the pIC50 under setting [2] is ≥ 6.00. On to `CC1(C)CCCN(C(=O)c2cc(C3CCOCC3)sc2Cl)C1` [CC-005], for which, under setting [2], the pIC50 was ≥ 6.00.

`CC1(C)CCCN(C(=O)c2csc(C3CCCNC3)c2)C1` (stereo not shown) [CC-014] showed a pIC50 under setting [1] of 4.52 to 6.00. On the same count and under the same terms, the same measure for `O=C(c1csc(C2CCCNC2)c1)N1CCCC2CCCCC21` (stereo not shown) [CC-043]: 4.52 to 6.00. Consider `O=C(c1csc(C2CCOCC2)c1)N1CCCCCC1` [CC-004], for which the pIC50 under setting [2] was ≥ 6.00. As to `CC1(C)CC2CC(C)(CN2C(=O)c2csc(C3CCCCC3)c2)C1` (stereo not shown) [DD-005], under setting [2], the pIC50 is ≥ 6.00. On the same count and under the same terms, to `CC1(C)CC2CC(C)(CN2C(=O)c2cc(C3CCOCC3)sc2Cl)C1` (stereo not shown) [CC-070] belongs ≥ 6.00. Under setting [1], `CC1(C)CCCN(C(=O)c2csc(C3CCN(C(=O)c4ccno4)CC3)c2)CC1` [CC-095] gave a pIC50 of 4.52 to 6.00. For `CCc1cc(C(=O)N2CCCC3CCCCC32)c(Cl)s1` (stereo not shown) [AA-013], the pIC50 under setting [2] was ≥ 6.00. Under setting [1], `CC1(C)CCCN(C(=O)c2csc(C3CCN(S(C)(=O)=O)CC3)c2)CC1` [CC-096] had a pIC50 of 4.52 to 6.00. On to `Cc1ccccc1OCc1cc(C(=O)N2CCCCC2)cs1` [BB-002, Piperidin-1-yl-(5-o-tolyloxymethyl-thiophen-3-yl)-methanone], for which, under setting [2], the pIC50 was ≥ 6.00.

For the molecule `CC1(C)CCCN(C(=O)c2csc(C3=CCNCC3)c2)CC1` [CC-124], under setting [1], the pIC50 is 4.52 to 6.00. As for `O=C(c1csc(C2CCOCC2)c1)N1CCC2CCCCC2C1` (stereo not shown) [CC-029], the pIC50 under setting [1] was 4.52 to 6.00. The molecule `O=C(CCN1CCCCC1)N1CCC(c2cc(C(=O)N3CCCC4CCCCC43)cs2)CC1` (stereo not shown) [CC-062] showed a pIC50 under setting [1] of 4.52 to 6.00. `CCc1cc(C(=O)N2CC3CC4CC(C3)CC2C4)cs1` [AA-015]: under setting [2], the pIC50 is ≥ 6.00. In the case of `Cn1cncc1C(=O)N1CCC(c2cc(C(=O)N3CCCC4CCCCC43)cs2)CC1` (stereo not shown) [CC-084], the pIC50 under setting [2] is ≥ 6.00.

Take `CC1(C)CC2CC(C)(CN2C(=O)c2csc(C3CCOCC3)c2)C1` (stereo not shown) [CC-069]: the pIC50 under setting [2] is ≥ 6.00.

As to `O=C(NCCO)N1CCC(c2cc(C(=O)N3CCCC4CCCCC43)cs2)CC1` (stereo not shown) [CC-173], the pIC50 under setting [2] was ≥ 6.00. For `CC(=O)N1CCC(c2cc(C(=O)N3CCCC4CCCCC43)cs2)CC1` (stereo not shown), the pIC50 under setting [2] is ≥ 6.00. Under setting [1], `O=C(c1csc(C2CCNCC2)c1)N1CCN2CCCCC2C1` (stereo not shown) [CC-042] gave a pIC50 of 4.52 to 6.00. With `CCc1cc(C(=O)N2CCCCC2c2ccccc2)cs1` (stereo not shown) [AA-021], under setting [2], the negative-log IC50 (pIC50) was ≥ 6.00.

In turn, `O=C(c1csc(C2CCNCC2)c1)N1CCCCC1c1ccccn1` (stereo not shown) [CC-012] showed a pIC50 under setting [1] of 4.52 to 6.00. In turn, `O=C(c1csc(C2CCNCC2)c1)N1CCCCCC1` [CC-008, Azepan-1-yl-(5-piperidin-4-yl-thiophen-3-yl)-methanone] gave a pIC50 under setting [1] of 4.52 to 6.00.

As for `O=C(Cc1cccnc1)N1CCC(c2cc(C(=O)N3CCCC4CCCCC43)cs2)CC1` (stereo not shown) [CC-134], the pIC50 under setting [2] is ≥ 6.00. `CC1(C)CCCN(C(=O)c2csc(C3CCN(C(C)(C)C(N)=O)CC3)c2)CC1` [CC-137]: under setting [2], the pIC50 was ≥ 6.00. For the molecule `O=C(c1csc(C2CCCNC2)c1)N1CCCC2(CCCCC2)C1` (stereo not shown) [CC-080], the pIC50 under setting [1] was 4.52 to 6.00. Consider `O=C(c1csc(C2CCN(c3ncccn3)CC2)c1)N1CCC[C@@H]2CCCC[C@@H]21` (relative stereo) [CC-121, cis-(Octahydro-quinolin-1-yl)-[5-(1-pyrimidin-2-yl-piperidin-4-yl)-thiophen-3-yl]-methanone], for which the pIC50 under setting [1] was 4.52 to 6.00. Under setting [1], `O=C(c1csc(COc2ccccc2)c1)N1CCCCC1` [BB-001] showed a pIC50 of 4.52 to 6.00. Regarding `CC1(C)CC2CC(C)(CN2C(=O)c2csc(C3CCN(C(=O)OCc4ccccc4)CC3)c2)C1` (stereo not shown) [CC-071], the pIC50 under setting [1] was 4.52 to 6.00. Under setting [1], `CC1(C)CCCCN(C(=O)c2csc(C3=CCNCC3)c2)C1` [CC-125] gave a pIC50 of 4.52 to 6.00.

Turning to `O=C(c1csc(C2CCN(CCO)CC2)c1)N1CCC[C@@H]2CCCC[C@@H]21` (racemic) [CC-088, cis-1-(2-Hydroxy-ethyl)-4-[4-(octahydro-quinoline-1-carbonyl)-thiophen-2-yl]-piperidinium formate], the pIC50 under setting [1] was 4.52 to 6.00.

Regarding `O=C1CCCN1c1cc(C(=O)N2CCCC3CCCCC32)cs1` (stereo not shown) [CC-049], under setting [2], the pIC50 was ≥ 6.00.
